Reference: US20140193827A1 (TEVA PHARMACEUTICAL INDUSTRIES, LTD., priority 2013, published 2014)

Legend:
[1] = system: GA-primed murine splenocytes; assay: Functional gene expression analysis (Ingenuity Pathways Analysis: biological functions, canonical pathways); set-up: species or system mouse; details: vs. Medium
Procedure: To identify the leading biological mechanisms associated with genes induced in splenocytes by glatiramoids, gene functional annotation, enrichment, and pathway analyses were performed by Ingenuity Pathways Analysis (IPA) Suite (www.ingenuity.com). The program integrates data from various experimental platforms and primary literature sources to provide insight into molecular interactions, cellular phenotypes, and disease processes, and then predicts downstream biological effects of gene transcription changes. IPA web software was also used to reconstruct regulatory genes and transcriptional factors functional networks. A significance score (using the right-tailed Fisher's exact test and expressed as a p value) for each process is calculated as the number of gene transcripts that participate in a network or pathway relative to the total number of these genes in all functional/pathway annotations stored in the IPA database. All p values were applied for multiple testing corrections using Benjamini-Hochberg FDR method with a cut off at p =0.05.

[2] = system: GA-primed murine splenocytes; assay: Non-parametric Wilcoxon rank sum test GA vs PG; assay type: cell-based, mouse
From the text: Nominal p-values were FDR adjusted and only probes that were less than or equal to 0.05 were considered.

glatiramer acetate [GA]
Response, Activation of T lymphocytes [1]: Upregulated | Response, Activation of antigen presenting cells [1]: Upregulated | Response, Activation of lymphocytes [1]: Upregulated | Response, Activation of mononuclear leukocytes [1]: Upregulated | Response, Activation of phagocytes [1]: Upregulated | Response, Development of hematopoietic progenitor cells [1]: Down-regulated | Response, Differentiation of effector T lymphocytes [1]: Upregulated | Response, Differentiation of naive lymphocytes [1]: No change | Response, Expansion of lymphocytes [1]: No change | Response, Expansion of mononuclear leukocytes [1]: No change | Response, Immune response of antigen presenting cells [1]: Upregulated | Response, Proliferation of B lymphocytes [1]: Upregulated | Response, Proliferation of T lymphocytes [1]: No change | Response, Proliferation of hematopoietic cell lines [1]: Upregulated | Response, Proliferation of immune cells [1]: Upregulated | Response, Proliferation of lymphocytes [1]: Upregulated | Response, Quantity of cytotoxic T cells [1]: Down-regulated | Response, Stimulation of antigen presenting cells [1]: Upregulated | Response, Stimulation of macrophages [1]: Upregulated | Response, Suppression of T lymphocytes [1]: Upregulated | CD40 expression, GA vs PG [2]: significantly lower expression
